Results published in BigSolDB 2.1.

Cc1c(Br)cccc1C(=O)O
solubility (mole fraction)
Conditions | in DMF | in THF | in acetonitrile | in cyclohexane | in ethanol | in ethyl acetate | in methanol
278.15 K | 0.104 | 0.169 | 0.00326 | – | 0.0358 | 0.027 | 0.0205
283.15 K | 0.126 | 0.183 | 0.00387 | 0.00076 | 0.0398 | 0.031 | 0.0261
288.15 K | 0.152 | 0.196 | 0.00473 | 0.00092 | 0.0449 | 0.0359 | 0.0301
293.15 K | 0.181 | 0.209 | 0.006 | 0.00113 | 0.0513 | 0.0413 | 0.0355
298.15 K | 0.216 | 0.222 | 0.00665 | 0.00135 | 0.0563 | 0.0464 | 0.041
303.15 K | 0.258 | 0.236 | 0.00779 | 0.00162 | 0.0631 | 0.0524 | 0.0479
308.15 K | 0.305 | 0.248 | 0.00955 | 0.00197 | 0.0703 | 0.0601 | 0.0559
313.15 K | 0.361 | 0.26 | 0.0113 | 0.00249 | 0.0831 | 0.0677 | 0.0641
318.15 K | 0.424 | 0.271 | 0.0138 | 0.00312 | 0.0936 | 0.0775 | 0.0724
323.15 K | 0.5 | 0.282 | 0.0164 | 0.00422 | 0.104 | 0.0879 | 0.0815
328.15 K | 0.584 | 0.293 | 0.0194 | 0.00529 | 0.121 | 0.101 | 0.0895
